pIC50: −log10 of the molar value.

In the first experiment the target is T1, bromodomain of BRD9 (GST fusion) / acetylated histone H4 peptide (BET Bromodomain Ligand) (Homo sapiens, UniProt Q9H8M2).
T1 construct: A GST fusion protein of the bromodomain of BRD9; purchased BPS Biosciences #32519
T1 sequence (Q9H8M2 136-240 limits assumed): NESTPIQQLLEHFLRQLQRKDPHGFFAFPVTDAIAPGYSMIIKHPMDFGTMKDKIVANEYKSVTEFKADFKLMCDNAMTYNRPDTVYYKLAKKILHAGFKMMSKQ
Put plainly: BRD9-H4 Tetraacetylated Peptide Inhibition AlphaScreen. Format: binding. The text has this: BRD9-H4 Tetraacetylated Peptide Inhibition AlphaScreen
This assay is used to identify compounds which inhibit the interaction of the bromodomain of BRD9 with a tetra-acetylated peptide based on the sequence of histone H4 (termed the “BET Bromodomain ligand” as purchased from BPS Biosciences).
A GST fusion protein of the bromodomain of BRD9 and an acetylated histone H4 peptide (the “BET Bromodomain Ligand” are purchased as part of the BRD9 Inhibitor Screening Assay Kit at BPS Biosciences (Cat. Number: #32519)
AlphaScreen Beads (Perkin Elmer):
AlphaLISA Glutathione Acceptor Beads
AlphaScreen Streptavidin Donor Beads
Assay plates: Proxiplate-384 PLUS, white (PerkinElmer)
The assay is done in a darkened room below 100 Lux.
Compounds are dispensed onto assay plates using an Access Labcyte Workstation with the Labcyte Echo 550 from a DMSO solution. For the chosen highest concentration of 100 μM, 150 nl of compound solution are transferred from a 10 mM DMSO solution. A series of 11 concentrations is transferred for each compound at which each concentration is five-fold lower than the previous one (i.e. 100 μM, 20 μM, 4 μM, 0.8 μM, etc). DMSO is added such that every well has a total of 150 nl of DMSO.
15 μl of the resulting mix are added to the assay plates that contain 150 nl of the compounds. After 60 min at room temperature the signal is measured in a PerkinElmer Envision HTS Multilabel Reader using the AlphaScreen specifications from PerkinElmer.
Each plate contains negative controls where biotinylated BET Bromodomain Ligand and GST-BRD9 are left out and replaced by assay buffer. Negative control values are entered as low basis value when using the software GraphPad Prism for calculations.
A general note: Alpha assays give light when donor and acceptor beads are brought close together.
Consider `Cc1cc(-c2ccc(C(=O)N3CCN(C)CC3)cc2)cn(C)c1=O` [Compound I-9], for which the pIC50 is 6.76.

Molecule `Cc1cc(-c2ccc(CN3CCOCC3)cc2)cn(C)c1=O` [Compound I-14] had a pIC50 of 6.96.

`Cc1cc(-c2ccc(C(=O)N3CCN(C)CC3)c(F)c2)cn(C)c1=O` [Compound I-15] gave a pIC50 of 6.55.

For `Cc1cc(-c2cccc(OC(F)(F)F)c2)cn(C)c1=O` [Compound I-16], the negative logarithm of the IC50 (pIC50) is 6.25.

`Cc1c(-c2ccc(C(=O)N3CCN(C)CC3)cc2)cn(C)c(=O)c1C` [Compound I-18]: the negative-log IC50 (pIC50) was 6.95.

In turn, `Cc1ccc(-c2cn(C)c(=O)c(C)c2C)cc1N` [Compound I-19] had a negative-log IC50 (pIC50) of 6.48.

On to `Cc1ccc(-c2cc(C)c(=O)n(C)c2)cc1NS(C)(=O)=O` [Compound I-23, N-[5-(1,5-Dimethyl-6-oxo-1,6-dihydro-pyridin-3-yl)-2-methyl-phenyl]-methanesulfonamide], for which the negative logarithm of the IC50 (pIC50) was 6.22.

Molecule `CCn1cc(-c2ccc(C)c(NS(C)(=O)=O)c2)cc(C)c1=O` [Compound I-24] gave a pIC50 of 5.48. Compared with the last molecule, the pIC50 is 0.74 log units lower.

As to `Cc1ccc(-c2cn(C)c(=O)c(C)n2)cc1NS(C)(=O)=O` [Compound I-25], the negative logarithm of the IC50 (pIC50) was 5.18.

As to `Cc1ccc(-c2cc(C)c(=O)n(C)n2)cc1NS(C)(=O)=O` [Compound I-26], the pIC50 is 5.59.

For the next experiment, the target named is T2, bromodomain of BRD9 (GST-BRD9 aa 130-259) / H3 K9/14/18/23Ac(1-28) peptide (Homo sapiens, UniProt Q9H8M2).
T2 construct: The protein corresponding to amino acids 130-259 that contains the bromodomain of BRD9; made in house; host or cells: E. coli
T2 sequence (Q9H8M2 130-259): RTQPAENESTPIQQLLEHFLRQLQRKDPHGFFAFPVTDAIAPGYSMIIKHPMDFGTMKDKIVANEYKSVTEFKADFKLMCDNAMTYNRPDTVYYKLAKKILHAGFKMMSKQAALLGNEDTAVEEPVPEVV
Briefly: BRD9-H3 tetra-acetylated Peptide Inhibition AlphaScreen. The experiment is classed as binding.
Protocol: Biological Methods BRD9-H3 tetra-acetylated Peptide Inhibition AlphaScreen
This assay is used to identify compounds which inhibit the interaction of the bromodomain of BRD9 with a tetra-acetylated peptide based on the sequence of histone H3 (H3 K9/14/18/23Ac (1-28)).
Compounds are dispensed onto assay plates using an Access Labcyte Workstation with the Labcyte Echo 550 from a DMSO solution. For the chosen highest concentration of 100 μM, 150 nl of compound solution are transferred from a 10 mM DMSO solution. […] DMSO is added such that every well has a total of 150 nl of DMSO.
Each plate contains negative controls where biotinylated H3 K9/14/18/23Ac(1-28) peptide and GST-BRD9 are left out and replaced by assay buffer. Negative control values are entered as low basis value when using the software GraphPad Prism for calculations.
In turn, `COc1cc(-c2cc(C)c(=O)n(C)c2)ccc1CN1CC(N(C)C)C1` [Compound I-206, 5-[4-(3-Dimethylamino-azetidin-1-ylmethyl)-3-methoxy-phenyl]-1,3-dimethyl-1H-pyridin-2-one] gave a pIC50 of 6.32.

In turn, `COc1cc(-c2cc(C)c(=O)n(C)c2)cc(OC)c1CN(C)C1CNC1` [Compound I-207, 5-{4-[(Azetidin-3-yl-methyl-amino)-methyl]-3,5-dimethoxy-phenyl}-1,3-dimethyl-1H-pyridin-2-one] showed a pIC50 of 7.03.

Molecule `COc1cc(-c2cc(C)c(=O)n(C)c2)cc(OC)c1CN(C)C1CN(C)C1` [Compound I-208, 5-(3,5-Dimethoxy-4-{[methyl-(1-methyl-azetidin-3-yl)-amino]-methyl}-phenyl)-1,3-dimethyl-1H-pyridin-2-one] gave a negative-log IC50 (pIC50) of 6.94. This pIC50 and that of the molecule before are within 0.2 log units of each other.

Turning to `Cc1cc(-c2ccc3c(c2)CN(C)C3)cn(C)c1=O` [Compound I-209, 1,3-Dimethyl-5-(2-methyl-2,3-dihydro-1H-isoindol-5-yl)-1H-pyridin-2-one], the pIC50 is 6.66.

`Cc1cc(-c2ccc3c(c2)CCN(C)C3)cn(C)c1=O` [Compound I-210] gave a negative-log IC50 (pIC50) of 6.52.

In turn, `Cc1cc(-c2ccc3c(c2)CCN(C)C3)c(C)n(C)c1=O` [Compound I-211] showed a negative-log IC50 (pIC50) of 6.33. This pIC50 and that of the molecule before are within 0.2 log units of each other.

`Cc1cc(-c2ccc3c(c2)CN(C)C3)c(C)n(C)c1=O` [Compound I-212] gave a pIC50 of 6.12.

Molecule `Cc1c(-c2ccc(C(N)=O)cc2)cn(C)c(=O)c1C` [Compound I-213] showed a pIC50 of 5.27.

`Cc1cc(-c2ccc(C(=O)N3CCN(C)CC3)cc2)c(C)n(C)c1=O` [Compound I-214]: the pIC50 was 5.49.

In the case of `Cc1cc(-c2ccc(N3CCOCC3)cc2)c(C)n(C)c1=O` [Compound I-215], the negative-log IC50 (pIC50) is 5.04. Compared with the last molecule, the pIC50 is 0.45 log units lower.

In turn, `COc1cc(-c2cn(C)c(=O)c3ccccc23)cc(OC)c1CN1CC(O)C1` [II-1, 4-[4-(3-Hydroxy-azetidin-1-ylmethyl)-3,5-dimethoxy-phenyl]-2-methyl-2H-isoquinolin-1-one] had a pIC50 of 8.10.

In turn, `CN(C)Cc1ccc(-c2cn(C)c(=O)c3ccccc23)cc1` [II-5] gave a negative logarithm of the IC50 (pIC50) of 6.04.

`CN1CCN(C(=O)c2ccc(-c3cn(C)c(=O)c4cnccc34)cc2)CC1` [II-8] gave a negative logarithm of the IC50 (pIC50) of 6.02. This pIC50 and that of the molecule before are within 0.2 log units of each other.

Consider `Cn1cc(-c2ccc(C(N)=O)cc2)c2ccncc2c1=O` [II-9], for which the pIC50 is 5.85. The pIC50 values of the last two molecules are within 0.2 log units of each other.

As to `COc1cc(-c2cn(C)c(=O)c3cncnc23)cc(OC)c1CN1CC(O)C1` [II-11], the negative-log IC50 (pIC50) is 7.38.

`COc1cc(-c2cn(C)c(=O)c3cncnc23)c(OC)cc1CN(C)C` [II-12] gave a pIC50 of 6.46.

As for `Cn1cc(-c2ccc(C(=O)N3CCNCC3)cc2)c2ncncc2c1=O` [II-13], the pIC50 is 6.23.

Regarding `Cn1cc(-c2ccc(C(=O)N3CCNCC3)cc2)c2cccnc2c1=O` [II-14], the negative logarithm of the IC50 (pIC50) is 5.86.

As to `CN1CCN(C(=O)c2ccc(-c3nn(C)c(=O)c4ccccc34)cc2)CC1` [II-17], the pIC50 was 4.79. This pIC50 lies 1.07 log units lower than the previous one.

`COc1cc(-c2cn(C)c(=O)c3ccc(Cn4cccn4)cc23)cc(OC)c1CN(C)C` [II-19] had a negative logarithm of the IC50 (pIC50) of 7.51.

In turn, `CN(C)Cc1ccc(-c2cn(C)c(=O)c3ccc(Cn4cccn4)cc23)cc1` [II-20] gave a pIC50 of 6.75.

In turn, `COc1cc(-c2cn(C)c(=O)c3ncccc23)c(OC)cc1CN(C)C` [II-22] gave a pIC50 of 5.67.

Regarding `COc1cc(-c2cn(C)c(=O)c3ccncc23)c(OC)cc1CN(C)C` [II-24], the pIC50 was 6.22.

`COc1cc(-c2cn(C)c(=O)c3cccnc23)c(OC)cc1CN(C)C` [II-26] had a pIC50 of 6.20.

Take `COc1cc(-c2cn(C)c(=O)c3cncnc23)cc(OC)c1CN1CC(N)C1` [II-30, 8-[4-(3-Amino-azetidin-1-ylmethyl)-3,5-dimethoxy-phenyl]-6-methyl-6H-pyrido[4,3-d]pyrimidin-5-one]: the pIC50 was 8.30.

As to `COc1cc(-c2cn(C)c(=O)c3cnccc23)cc(OC)c1CN1CC(N)C1` [II-31], the pIC50 is 7.96. Compared with the last molecule, the pIC50 is 0.34 log units lower.

In the case of `COc1cc(-c2cn(C)c(=O)c3cnccc23)cc(OC)c1CNC1CNC1` [II-32], the negative-log IC50 (pIC50) is 7.62.

In turn, `COc1cc(-c2cn(C)c(=O)c3cncnc23)cc(OC)c1CNC1CNC1` [II-33] gave a pIC50 of 7.64.

`COc1cc(-c2cn(C)c(=O)c3cnccc23)cc(OC)c1CN1CC(O)C1` [II-34] gave a pIC50 of 8.10.

Take `COc1cc(-c2cn(C)c(=O)c3ccccc23)ccc1CN(C)C` [II-41, 4-(4-Dimethylaminomethyl-3-methoxy-phenyl)-2-methyl-2H-isoquinolin-1-one]: the negative logarithm of the IC50 (pIC50) was 6.90.

Turning to `Cn1cc(-c2ccc(C(=O)N3CCNCC3)cc2)c2ccccc2c1=O` [II-42, 2-Methyl-4-[4-(piperazine-1-carbonyl)-phenyl]-2H-isoquinolin-1-one], the negative logarithm of the IC50 (pIC50) was 6.36.

With `CN1CCN(Cc2ccc(-c3cn(C)c(=O)c4ccccc34)cc2)CC1` [II-43], the negative logarithm of the IC50 (pIC50) was 6.05.

With `C[C@@H](N)c1ccc(-c2cn(C)c(=O)c3ccccc23)cc1` [II-44], the pIC50 is 6.04.

On to `Cc1cc(-c2cn(C)c(=O)c3ccccc23)ccc1C(=O)N1CCN(C)CC1` [II-45], for which the pIC50 is 6.01.

For `C[C@H](N)c1ccc(-c2cn(C)c(=O)c3ccccc23)cc1` [II-46], the negative-log IC50 (pIC50) is 6.00.

`Cc1cc(-c2cn(C)c(=O)c3ccccc23)ccc1C(=O)N(C)C` [II-47] showed a pIC50 of 5.92. This pIC50 and that of the molecule before are within 0.2 log units of each other.

`Cn1cc(-c2ccc(CN)cc2)c2ccccc2c1=O` [II-48]: the pIC50 was 5.81.

As to `Cc1cc(-c2cn(C)c(=O)c3ccccc23)ccc1C(N)=O` [II-49], the pIC50 is 5.50. Against the preceding molecule, the pIC50 is 0.31 log units lower.

`CN1CCN(C(=O)c2ccc(-c3cn(C)c(=O)c4ncccc34)cc2)CC1` [II-50]: the negative-log IC50 (pIC50) was 5.31.

`CN1CCN(C(=O)c2ccc(-c3cn(C)c(=O)c4cncnc34)cc2)CC1` [II-51] had a pIC50 of 5.28.

`COc1cc(-c2cn(C)c(=O)c3[nH]ccc23)ccc1CN1C[C@H]2C[C@@H]1CN2C` [III-2, 4-[3-Methoxy-4-((1R,4R)-5-methyl-2,5-diaza-bicyclo[2.2.1]hept-2-ylmethyl)-phenyl]-6-methyl-1,6-dihydro-pyrrolo[2,3-c]pyridin-7-one]: the negative-log IC50 (pIC50) is 7.41.

As for `COc1cc(-c2cn(C)c(=O)c3[nH]ccc23)ccc1CN1C[C@@H]2CC1CN2` [III-3], the pIC50 was 7.34.

In turn, `COc1cc(-c2cn(C)c(=O)c3[nH]ccc23)ccc1CN1C[C@@H]2CC1CN2C` [III-4] gave a negative logarithm of the IC50 (pIC50) of 7.21. This pIC50 and that of the molecule before are within 0.2 log units of each other.

Molecule `Cc1cc(-c2cn(C)c(=O)c3[nH]ccc23)ccc1C(=O)N1CCNCC1` [III-5] showed a pIC50 of 7.17.

Consider `Cn1cc(-c2ccc(C(=O)N3CCNCC3)cc2)c2cc[nH]c2c1=O` [III-6], for which the pIC50 was 7.09.

The molecule `COc1cc(-c2cn(C)c(=O)c3[nH]ccc23)ccc1C(=O)N1CCN(C)CC1` [III-7] had a negative logarithm of the IC50 (pIC50) of 7.02.

With `Cc1cc(-c2cn(C)c(=O)c3[nH]ccc23)ccc1C(=O)N1CCN(C)CC1` [III-8], the negative logarithm of the IC50 (pIC50) is 6.47.

As for `CN1CCN(C(=O)c2ccc(-c3cn(C)c(=O)c4[nH]ccc34)cc2)CC1` [III-9], the pIC50 is 6.41.

In turn, `Cn1cc(-c2ccc(C(=O)N3CCC3)cc2)c2cc[nH]c2c1=O` [III-10] had a negative-log IC50 (pIC50) of 6.31.

What is called pIC50 is the IC50 on a negative log10 scale, so that one unit is a factor of ten. High values mean a small IC50, low ones a large IC50.

Source of the values: patent US11319318B2, “Pyridinones and isoquinolinones as inhibitors of the bromodomain BRD9” (Boehringer Ingelheim International GmbH, priority 2015, dated 2022).
